For 32 compounds, inhibition results are on record in patent US9643957B2, “Heterocyclic compounds having cholesterol 24-hydroxylase activity” (TAKEDA PHARMACEUTICAL COMPANY LIMITED, priority 2012, dated 2017).

The target of this assay is T1, human CH24H (Homo sapiens, UniProt Q9Y6A2).
T1 construct: Using Full-Length Mammalian Gene Collection No. 4819975 (Invitrogen) as a template; made in house; host or cells: FreeStyle 293-F cells, transient transfection with pcDNA3.1(+)/hCH24H; lysate supernatant, not purified
T1 sequence (Q9Y6A2 whole entry): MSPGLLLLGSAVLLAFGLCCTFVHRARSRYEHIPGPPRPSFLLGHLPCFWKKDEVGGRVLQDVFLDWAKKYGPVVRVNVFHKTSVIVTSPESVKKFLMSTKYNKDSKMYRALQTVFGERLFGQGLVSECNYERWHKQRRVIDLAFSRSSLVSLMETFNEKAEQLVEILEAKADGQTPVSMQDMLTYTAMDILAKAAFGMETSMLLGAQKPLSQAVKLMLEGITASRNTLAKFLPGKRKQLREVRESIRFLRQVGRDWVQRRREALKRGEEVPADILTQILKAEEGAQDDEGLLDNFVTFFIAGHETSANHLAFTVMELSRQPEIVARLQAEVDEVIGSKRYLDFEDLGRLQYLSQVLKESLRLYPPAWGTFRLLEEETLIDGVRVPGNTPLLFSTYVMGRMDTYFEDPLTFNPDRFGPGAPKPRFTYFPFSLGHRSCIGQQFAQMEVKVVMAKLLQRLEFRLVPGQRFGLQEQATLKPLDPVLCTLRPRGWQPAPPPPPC
The assay is described as follows: Measurement of CH24H inhibitory activity (24-HC produced from [14C] cholesterol by human CH24H lysate). Particulars: 1 μM test compound, [14C] cholesterol 15 μM, 37° C. for 5 hr, read-out: Inhibitory Rate in 1 μM (%). Type of assay: biochemical. The protocol: The expression of human CH24H was performed using FreeStyle 293 Expression System (Invitrogen). […] After transfection, the cells were cultured at 37° C., 8% CO2 with shaking at 125 rpm for 2 days. The cells were collected by centrifugation, and suspended in a suspension buffer (100 mM potassium phosphate (pH 7.4), 0.1 mM EDTA, 1 mM DTT, 20% Glycerol). The suspended product was disrupted by a polytron homogenizer (manufactured by Kinematica), and centrifuged at 9000×g for 10 min, and the supernatant was collected. The collected supernatant was cryopreserved (−80° C.) as a human CH24H lysate standard product.
For the measurement of CH24H inhibitory activity, using the human CH24H lysate prepared in Experimental Example 2, the amount of 24-HC produced from cholesterol by catalytic activity of CH24H was measured in the presence of a test compound, and compared with that measured in the absence of the test compound. That is, a test compound solution at various concentrations was mixed with a reaction buffer (50 mM potassium phosphate containing 0.1% BSA and Complete, EDTA-free, pH 7.4) and human CH24H lysate. Then, [^14C] cholesterol (53 mCi/mmol specific activity, 15 μM) was added, and CH24H reaction was performed at 37° C. for 5 hr. After completion of the reaction, a quenching solution consisting of chloroform/methanol/distilled water (2:2:1 v/v) was added, and the resulting 24-HC was extracted by shaking. The extract was applied to silica gel thin layer chromatography (ethyl acetate:toluene=4:6), and the obtained ^14C-24HC fraction was measured with BAS2500 (Fujifilm Corporation).
The inhibitory rate (%) was calculated from the ratio of radioactivity in the presence of a test compound relative to the radioactivity in the absence of the test compound.

The structures appear in SMILES notation.

In the case of `Cc1cnn(-c2ccncc2N2[C@@H]3CC[C@H]2C[C@H](C(=O)N(C)C)C3)c1` [Example 13, (3-exo)-N,N-dimethyl-8-(4-(4-methyl-1H-pyrazol-1-yl)pyridin-3-yl)-8-azabicyclo[3.2.1]octane-3-carboxamide], the inhibition at 1 µM was found to be 89%.

With `Cc1cn(-c2ccncc2N2CCC(C(=O)NC3CC3)CC2)nc1C` [Example 200, N-cyclopropyl-1-(4-(3,4-dimethyl-1H-pyrazol-1-yl)pyridin-3-yl)piperidine-4-carboxamide], the inhibition at 1 µM was 88%. Take `CC1(C)CCCN1C(=O)C1CCN(c2cnccc2-n2cc(Cl)cn2)CC1` [Example 26, (1-(4-(4-chloro-1H-pyrazol-1-yl)pyridin-3-yl)piperidin-4-yl)(2,2-dimethylpyrrolidin-1-yl)methanone]: the inhibition at 1 µM is 98%.

Consider `Cc1cnn(-c2ccncc2N2CCC(C(=O)N(C)C3CC3)CC2)c1` [Example 86, N-cyclopropyl-N-methyl-1-(4-(4-methyl-1H-pyrazol-1-yl)pyridin-3-yl)piperidine-4-carboxamide], for which the inhibition at 1 µM was determined as 98%. In the case of `O=C(NCc1ccccc1)N1CCN(c2cncnc2-c2ccccc2)CC1` [Example 175, N-benzyl-4-(4-phenylpyrimidin-5-yl)piperazine-1-carboxamide], the inhibition at 1 µM came to 95%.

`CN(C(=O)C1CCN(c2cnccc2-n2cc(Cl)cn2)CC1)[C@H]1CCOC1` [Example 307, 1-(4-(4-chloro-1H-pyrazol-1-yl)pyridin-3-yl)-N-methyl-N-((3S)-tetrahydrofuran-3-yl)piperidine-4-carboxamide]: the inhibition at 1 µM is 81%. As for `N#C[C@H]1CCCN1C(=O)N1CCN(c2cncnc2-c2ccc(F)cc2)CC1` [Example 198, (2R)-1-((4-(4-(4-fluorophenyl)pyrimidin-5-yl)piperazin-1-yl)carbonyl)pyrrolidine-2-carbonitrile], the inhibition at 1 µM is 90%.

For `Cc1cnn(-c2ccncc2N2CCC(C(=O)N3CCC[C@H]3C(N)=O)CC2)c1` [Example 114, 1-((1-(4-(4-methyl-1H-pyrazol-1-yl)pyridin-3-yl)piperidin-4-yl)carbonyl)-L-prolinamide], the inhibition at 1 µM came out at 86%. Regarding `O=C(C1CCN(c2cnccc2-n2cc(Cl)cn2)CC1)N1CCS(=O)(=O)CC1` [Example 30, (1-(4-(4-chloro-1H-pyrazol-1-yl)pyridin-3-yl)piperidin-4-yl)(1,1-dioxidothiomorpholin-4-yl)methanone], the inhibition at 1 µM worked out at 97%. Under `CNC(=O)N1CCN(c2cncnc2-c2ccccc2)CC1` [Example 177, N-methyl-4-(4-phenylpyrimidin-5-yl)piperazine-1-carboxamide] stands 92%; under `CN1CCC2(CCN(c3cncnc3-c3ccc(F)cc3)CC2)C1=O` [Example 222, 8-(4-(4-fluorophenyl)pyrimidin-5-yl)-2-methyl-2,8-diazaspiro[4.5]decan-1-one], 92%; under `CO[C@@H]1CCN(C(=O)C2CCN(c3cncnc3-c3ccc(F)cc3)CC2)C1` [Example 304, (1-(4-(4-fluorophenyl)pyrimidin-5-yl)piperidin-4-yl)((3R)-3-methoxypyrrolidin-1-yl)methanone], 86%. Consider `Cc1nnc(-c2ccncc2N2CCC(F)(C(=O)N3CCC[C@@H]3C#N)CC2)s1` [Example 131, (2R)-1-((4-fluoro-1-(4-(5-methyl-1,3,4-thiadiazol-2-yl)pyridin-3-yl)piperidin-4-yl)carbonyl)pyrrolidine-2-carbonitrile], for which the inhibition at 1 µM is 87%.

For the compound `CN(C)C(=O)C1CCN(c2cnccc2-n2cc(C#N)cn2)CC1` [Example 83, 1-(4-(4-cyano-1H-pyrazol-1-yl)pyridin-3-yl)-N,N-dimethylpiperidine-4-carboxamide], the inhibition at 1 µM was 74%.

On to `N#C[C@@H]1CC(F)(F)CN1C(=O)C1CCN(c2cnccc2-n2cc(Cl)cn2)CC1` [Example 119, (2S)-1-((1-(4-(4-chloro-1H-pyrazol-1-yl)pyridin-3-yl)piperidin-4-yl)carbonyl)-4,4-difluoropyrrolidine-2-carbonitrile], for which the inhibition at 1 µM was determined as 93%. Regarding `CC1(CNC(=O)C2CCN(c3cnccc3-n3cc(Cl)cn3)CC2)COC1` [Example 31, 1-(4-(4-chloro-1H-pyrazol-1-yl)pyridin-3-yl)-N-((3-methyloxetan-3-yl)methyl)piperidine-4-carboxamide], the inhibition at 1 µM worked out at 97%. The same measure for `O=C(C1CCN(c2cncnc2-c2ccc(F)cc2)CC1)N1CC[C@@H](F)C1` [Example 287, (1-(4-(4-fluorophenyl)pyrimidin-5-yl)piperidin-4-yl)((3R)-3-fluoropyrrolidin-1-yl)methanone]: 89%. As to `O=C(N1CCN(c2cnccc2-c2ccccc2)CC1)N1CCC1c1ccc(F)cc1` (centres unmarked) [Example 190, (2-(4-fluorophenyl)azetidin-1-yl) (4-(4-phenylpyridin-3-yl)piperazin-1-yl)methanone], the inhibition at 1 µM came out at 87%. `CO[C@@H]1CCN(C(=O)C2CCN(c3cnccc3-n3cc(C)cn3)CC2)C1` [Example 302, ((3R)-3-methoxypyrrolidin-1-yl)(1-(4-(4-methyl-1H-pyrazol-1-yl)pyridin-3-yl)piperidin-4-yl)methanone]: the inhibition at 1 µM was determined as 87%. Under `CN(C(=O)C1CCN(c2cnccc2-n2cc(Cl)cn2)CC1)[C@@H]1CCOC1` [Example 308, 1-(4-(4-chloro-1H-pyrazol-1-yl)pyridin-3-yl)-N-methyl-N-((3R)-tetrahydrofuran-3-yl)piperidine-4-carboxamide] stands 83%; under `CN(Cc1ccccc1)C(=O)N1CCN(c2cncnc2-c2ccccc2)CC1` [Example 298, N-benzyl-N-methyl-4-(4-phenylpyrimidin-5-yl)piperazine-1-carboxamide], 79%; under `CO[C@@H]1C[C@H](C#N)N(C(=O)C2CCN(c3cnccc3-n3cc(C)cn3)CC2)C1` [Example 138, (2R,4R)-4-methoxy-1-((1-(4-(4-methyl-1H-pyrazol-1-yl)pyridin-3-yl)piperidin-4-yl)carbonyl)pyrrolidine-2-carbonitrile], 93%. The same measure for `Cc1nnc(-c2ccncc2N2CCC(C(=O)N3CCC[C@@H]3C#N)CC2)s1` [Example 87, (2R)-1-((1-(4-(5-methyl-1,3,4-thiadiazol-2-yl)pyridin-3-yl)piperidin-4-yl)carbonyl)pyrrolidine-2-carbonitrile]: 98%.

In the case of `N#C[C@H]1CC(F)(F)CN1C(=O)C1CCN(c2cnccc2-c2ccccn2)CC1` [Example 143, (2R)-1-((1-(2,4′-bipyridin-3′-yl)piperidin-4-yl)carbonyl)-4,4-difluoropyrrolidine-2-carbonitrile], the inhibition at 1 µM amounted to 98%. Under `C[C@@H]1CN(c2cncnc2-c2ccccc2)CCN1C(=O)OCc1ccccc1` [Example 158, benzyl (2R)-2-methyl-4-(4-phenylpyrimidin-5-yl)piperazine-1-carboxylate] stands 85%; under `O=C(C1CC1)N1CCN(c2cnccc2-c2ccccc2)CC1` [Example 152, cyclopropyl(4-(4-phenylpyridin-3-yl)piperazin-1-yl)methanone], 90%.

For `O=C(CCn1ncc2ccccc21)N1CCN(c2cnccc2-c2ccccc2)CC1` [Example 183, 3-(1H-indazol-1-yl)-1-(4-(4-phenylpyridin-3-yl)piperazin-1-yl)propan-1-one], the inhibition at 1 µM turned out to be 92%. The same measure for `Cc1cnc(-c2ccncc2N2CCC(C(=O)N3CC[C@H](F)C3)CC2)s1` [Example 316, ((3S)-3-fluoropyrrolidin-1-yl)(1-(4-(5-methyl-1,3-thiazol-2-yl)pyridin-3-yl)piperidin-4-yl)methanone]: 94%; for `Cc1cnn(-c2ccncc2N2CCC(C(=O)N(CCF)[C@H]3CCOC3)CC2)c1` [Example 312, N-(2-fluoroethyl)-1-(4-(4-methyl-1H-pyrazol-1-yl)pyridin-3-yl)-N-((3S)-tetrahydrofuran-3-yl)piperidine-4-carboxamide]: 71%. Consider `CN(C(=O)C1CCN(c2cncnc2-c2ccc(F)cc2)CC1)C1CC1` [Example 277, N-cyclopropyl-1-(4-(4-fluorophenyl)pyrimidin-5-yl)-N-methylpiperidine-4-carboxamide], for which the inhibition at 1 µM amounted to 94%. The same measure for `O=C(NC1CCOCC1)C1CCN(c2cnccc2-n2cc(Cl)cn2)CC1(F)F` (centres unmarked) [Example 79, 1-(4-(4-chloro-1H-pyrazol-1-yl)pyridin-3-yl)-3,3-difluoro-N-(tetrahydro-2H-pyran-4-yl)piperidine-4-carboxamide]: 93%; for `CC(C)C1CCCN1C(=O)C1CCN(c2cnccc2-n2cc(Cl)cn2)CC1` (centres unmarked) [Example 29, (1-(4-(4-chloro-1H-pyrazol-1-yl)pyridin-3-yl)piperidin-4-yl)(2-isopropylpyrrolidin-1-yl)methanone]: 97%.
